From patent US11896573B2, “Pharmaceutical compositions and pharmacokinetics of a gamma-hydroxybutyric acid derivative” (priority 2020, dated 2024)
Read-outs that look alike come from different tables or passages of the source.

Assay: Single ascending dose study, plasma pharmacokinetics of Compound (1) and GHB
Format: in vivo, human
Details: fasted; for Tmax / AUC(0-inf) / AUC(0-t) / Cmax / half-life: human, plasma; for Tmax: read-out: Compound (1) plasma Tmax, Median; for AUC(0-inf) / AUC(0-t) / Cmax / half-life: po
Procedure: The plasma concentrations of Compound (1) and GHB in plasma in healthy human subjects were measured using liquid chromatography tandem mass-spectroscopy and evaluated using PHOENIX™ WINNONLIN® version 8.1 (Pharsight Corporation, USA) and MICROSOFT® EXCEL® (Microsoft Corporation, USA).
All randomized subjects who received Compound (1), with available pharmacokinetic (PK) data and without relevant deviations interfering with the PK evaluations, were included. Subjects who received only placebo were excluded from the PK population. In addition, the PK population was used for the summaries and analyses of all PK data.
A randomized, double-blind, single-center, single ascending dose study was undertaken to evaluate the safety, tolerability, and pharmacokinetics of Compound (1) and GHB in healthy subjects.
Compound (1) was administered to randomized healthy subjects at doses from 0.1 g to 7.25 g as an aqueous solution of Compound (1) in water. The subjects fasted for at least 10 hours overnight with clear liquids allowed prior to dosing and the subjects were fasted for 4 hours after dosing.
Plasma samples were obtained at various times following oral administration and the plasma concentrations of Compound (1) and GHB were measured.

[1] = Cohort 7 (7.25 g) single oral dose

CC(C)[C@H](N)C(=O)OCCCC(=O)O [Compound (1), 4-((L-valyl)oxy)butanoic acid]
Compound (1) CL/F, Max [1]: 433 L/h | Compound (1) CL/F, Mean [1]: 376 L/h | Compound (1) CL/F, Median [1]: 375 L/h | Compound (1) CL/F, Min [1]: 298 L/h | Compound (1) plasma AUC0-inf, Max [1]: 24.3 µg·h/mL | Compound (1) plasma AUC0-inf, Min [1]: 16.7 µg·h/mL | Compound (1) plasma AUC0-tlast, Max [1]: 24.3 µg·h/mL | Compound (1) plasma AUC0-tlast, Min [1]: 16.7 µg·h/mL | Compound (1) plasma Cmax, Max [1]: 26 µg/mL | Compound (1) plasma t1/2, Max [1]: 1.28 h | Compound (1) plasma t1/2, Min [1]: 0.92 h | Tmax (0.1 g, Cohort 1 (0.10 g) single oral dose): 0.25 h | Tmax (0.5 g, Cohort 2 (0.50 g) single oral dose): 0.75 h | Tmax (1.5 g, Cohort 3 (1.50 g) single oral dose): 1 h | Tmax (4.5 g, Cohort 5 (4.50 g) single oral dose): 0.75 h | AUC(0-inf) (0.1 g, Cohort 1 (0.10 g) single oral dose, read-out: Compound (1) plasma AUC0-inf, Mean): 0.25 µg·h/mL | AUC(0-inf) (0.1 g, Cohort 1 (0.10 g) single oral dose, read-out: Compound (1) plasma AUC0-inf, Median): 0.252 µg·h/mL | AUC(0-t) (0.1 g, Cohort 1 (0.10 g) single oral dose, read-out: Compound (1) plasma AUC0-tlast, Mean): 0.249 µg·h/mL | AUC(0-t) (0.1 g, Cohort 1 (0.10 g) single oral dose, read-out: Compound (1) plasma AUC0-tlast, Median): 0.25 µg·h/mL | Cmax (0.1 g, Cohort 1 (0.10 g) single oral dose, read-out: Compound (1) plasma Cmax, Mean): 0.42 µg/mL | Cmax (0.1 g, Cohort 1 (0.10 g) single oral dose, read-out: Compound (1) plasma Cmax, Median): 0.373 µg/mL | half-life (0.1 g, Cohort 1 (0.10 g) single oral dose, read-out: Compound (1) plasma t1/2, Mean (converted)): 0.7 h | half-life (0.1 g, Cohort 1 (0.10 g) single oral dose, read-out: Compound (1) plasma t1/2, Median (converted)): 0.71 h | AUC(0-inf) (0.5 g, Cohort 2 (0.50 g) single oral dose, read-out: Compound (1) plasma AUC0-inf, Mean): 1.29 µg·h/mL | AUC(0-inf) (0.5 g, Cohort 2 (0.50 g) single oral dose, read-out: Compound (1) plasma AUC0-inf, Median): 1.28 µg·h/mL | AUC(0-t) (0.5 g, Cohort 2 (0.50 g) single oral dose, read-out: Compound (1) plasma AUC0-tlast, Mean): 1.29 µg·h/mL | AUC(0-t) (0.5 g, Cohort 2 (0.50 g) single oral dose, read-out: Compound (1) plasma AUC0-tlast, Median): 1.28 µg·h/mL | Cmax (0.5 g, Cohort 2 (0.50 g) single oral dose, read-out: Compound (1) plasma Cmax, Mean): 1.54 µg/mL | Cmax (0.5 g, Cohort 2 (0.50 g) single oral dose, read-out: Compound (1) plasma Cmax, Median): 1.27 µg/mL | half-life (0.5 g, Cohort 2 (0.50 g) single oral dose, read-out: Compound (1) plasma t1/2, Mean (converted)): 1.11 h | half-life (0.5 g, Cohort 2 (0.50 g) single oral dose, read-out: Compound (1) plasma t1/2, Median (converted)): 1.19 h | AUC(0-inf) (1.5 g, Cohort 3 (1.50 g) single oral dose, read-out: Compound (1) plasma AUC0-inf, Mean): 2.48 µg·h/mL | AUC(0-inf) (1.5 g, Cohort 3 (1.50 g) single oral dose, read-out: Compound (1) plasma AUC0-inf, Median): 2.71 µg·h/mL | AUC(0-t) (1.5 g, Cohort 3 (1.50 g) single oral dose, read-out: Compound (1) plasma AUC0-tlast, Mean): 2.86 µg·h/mL | AUC(0-t) (1.5 g, Cohort 3 (1.50 g) single oral dose, read-out: Compound (1) plasma AUC0-tlast, Median): 2.96 µg·h/mL | Cmax (1.5 g, Cohort 3 (1.50 g) single oral dose, read-out: Compound (1) plasma Cmax, Mean): 3.37 µg/mL | Cmax (1.5 g, Cohort 3 (1.50 g) single oral dose, read-out: Compound (1) plasma Cmax, Median): 2.92 µg/mL | half-life (1.5 g, Cohort 3 (1.50 g) single oral dose, read-out: Compound (1) plasma t1/2, Mean (converted)): 1.04 h | half-life (1.5 g, Cohort 3 (1.50 g) single oral dose, read-out: Compound (1) plasma t1/2, Median (converted)): 1.06 h | AUC(0-inf) (3 g, Cohort 4 (3.00 g) single oral dose, read-out: Compound (1) plasma AUC0-inf, Mean): 7.52 µg·h/mL | AUC(0-inf) (3 g, Cohort 4 (3.00 g) single oral dose, read-out: Compound (1) plasma AUC0-inf, Median): 7.41 µg·h/mL | AUC(0-t) (3 g, Cohort 4 (3.00 g) single oral dose, read-out: Compound (1) plasma AUC0-tlast, Mean): 7.51 µg·h/mL | AUC(0-t) (3 g, Cohort 4 (3.00 g) single oral dose, read-out: Compound (1) plasma AUC0-tlast, Median): 7.41 µg·h/mL | Cmax (3 g, Cohort 4 (3.00 g) single oral dose, read-out: Compound (1) plasma Cmax, Mean): 11.3 µg/mL | Cmax (3 g, Cohort 4 (3.00 g) single oral dose, read-out: Compound (1) plasma Cmax, Median): 11.2 µg/mL | half-life (3 g, Cohort 4 (3.00 g) single oral dose, read-out: Compound (1) plasma t1/2, Mean (converted)): 1.15 h | half-life (3 g, Cohort 4 (3.00 g) single oral dose, read-out: Compound (1) plasma t1/2, Median (converted)): 1.12 h | AUC(0-inf) (4.5 g, Cohort 5 (4.50 g) single oral dose, read-out: Compound (1) plasma AUC0-inf, Mean): 11.4 µg·h/mL | AUC(0-inf) (4.5 g, Cohort 5 (4.50 g) single oral dose, read-out: Compound (1) plasma AUC0-inf, Median): 11.6 µg·h/mL | AUC(0-t) (4.5 g, Cohort 5 (4.50 g) single oral dose, read-out: Compound (1) plasma AUC0-tlast, Mean): 11.1 µg·h/mL | AUC(0-t) (4.5 g, Cohort 5 (4.50 g) single oral dose, read-out: Compound (1) plasma AUC0-tlast, Median): 11.6 µg·h/mL | Cmax (4.5 g, Cohort 5 (4.50 g) single oral dose, read-out: Compound (1) plasma Cmax, Mean): 12.8 µg/mL | Cmax (4.5 g, Cohort 5 (4.50 g) single oral dose, read-out: Compound (1) plasma Cmax, Median): 14.1 µg/mL | half-life (4.5 g, Cohort 5 (4.50 g) single oral dose, read-out: Compound (1) plasma t1/2, Mean (converted)): 1.14 h | half-life (4.5 g, Cohort 5 (4.50 g) single oral dose, read-out: Compound (1) plasma t1/2, Median (converted)): 1.13 h | AUC(0-inf) (6 g, Cohort 6 (6.00 g) single oral dose, read-out: Compound (1) plasma AUC0-inf, Mean): 18.4 µg·h/mL | AUC(0-inf) (6 g, Cohort 6 (6.00 g) single oral dose, read-out: Compound (1) plasma AUC0-inf, Median): 18 µg·h/mL | AUC(0-t) (6 g, Cohort 6 (6.00 g) single oral dose, read-out: Compound (1) plasma AUC0-tlast, Mean): 18.4 µg·h/mL | AUC(0-t) (6 g, Cohort 6 (6.00 g) single oral dose, read-out: Compound (1) plasma AUC0-tlast, Median): 18 µg·h/mL | Cmax (6 g, Cohort 6 (6.00 g) single oral dose, read-out: Compound (1) plasma Cmax, Mean): 17.6 µg/mL | Cmax (6 g, Cohort 6 (6.00 g) single oral dose, read-out: Compound (1) plasma Cmax, Median): 16.5 µg/mL | half-life (6 g, Cohort 6 (6.00 g) single oral dose, read-out: Compound (1) plasma t1/2, Mean (converted)): 1.18 h | half-life (6 g, Cohort 6 (6.00 g) single oral dose, read-out: Compound (1) plasma t1/2, Median (converted)): 1.18 h | AUC(0-inf) (7.25 g, Cohort 7 (7.25 g) single oral dose, read-out: Compound (1) plasma AUC0-inf, Mean): 19.6 µg·h/mL | AUC(0-inf) (7.25 g, Cohort 7 (7.25 g) single oral dose, read-out: Compound (1) plasma AUC0-inf, Median): 19.4 µg·h/mL | AUC(0-t) (7.25 g, Cohort 7 (7.25 g) single oral dose, read-out: Compound (1) plasma AUC0-tlast, Mean): 19.6 µg·h/mL | AUC(0-t) (7.25 g, Cohort 7 (7.25 g) single oral dose, read-out: Compound (1) plasma AUC0-tlast, Median): 19.4 µg·h/mL | Cmax (7.25 g, Cohort 7 (7.25 g) single oral dose, read-out: Compound (1) plasma Cmax, Mean): 22.1 µg/mL | Cmax (7.25 g, Cohort 7 (7.25 g) single oral dose, read-out: Compound (1) plasma Cmax, Median): 22.2 µg/mL | half-life (7.25 g, Cohort 7 (7.25 g) single oral dose, read-out: Compound (1) plasma t1/2, Mean (converted)): 1.11 h | half-life (7.25 g, Cohort 7 (7.25 g) single oral dose, read-out: Compound (1) plasma t1/2, Median (converted)): 1.12 h | Tmax (Cohort 4 (3.00 g) single oral dose): 0.5 h | Tmax (Cohort 6 (6.00 g) single oral dose): 0.5 h | Tmax [1]: 0.62 h
